Assay results from patent US4988707A, “Pharmacologically active phenylalkanoyl substituted imidazo (4,5-C) pyridines” (G. D. Searle & Co., priority 1989, dated 1991).

Each molecule was assayed against Human Platelet Receptor (Homo sapiens, UniProt P25105) (assay: not given). Details: not given.
Chain of Human Platelet Receptor (P25105 whole entry): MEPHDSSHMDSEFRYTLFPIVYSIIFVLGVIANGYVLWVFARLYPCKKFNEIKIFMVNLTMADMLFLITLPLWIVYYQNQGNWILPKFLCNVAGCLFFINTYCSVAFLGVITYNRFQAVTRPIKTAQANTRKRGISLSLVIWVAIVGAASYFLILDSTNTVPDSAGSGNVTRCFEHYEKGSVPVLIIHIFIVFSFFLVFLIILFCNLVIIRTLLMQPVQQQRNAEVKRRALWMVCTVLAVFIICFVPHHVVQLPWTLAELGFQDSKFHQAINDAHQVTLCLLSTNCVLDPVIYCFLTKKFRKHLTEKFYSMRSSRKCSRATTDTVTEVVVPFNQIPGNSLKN

Question: `O=C(CC1CCCCC1)c1ccc(Cn2ccc3ncnc-3c2)cc1` [2 Cyclohexyl-1-[4-(5H-Imidazo[4,5-c]Pyridin 5-yl-Methyl)Phenyl]Ethanone] was tested. Which IC50 did it give?
Answer: 4.44 nM

Question: Which IC50 does the source give for `C=CCC(C(=O)c1ccc(Cn2ccc3ncnc-3c2)cc1)C1CCCCC1` (stereo not shown) [2-Cyclohexyl-1-[4-(5H-Imidazo[4,5-c]Pyridin-5-yl-Methyl)Phenyl]-4-Penten-1-One] here?
Answer: 2.22 nM

Question: How did the IC50 turn out when `O=C(c1ccc(Cn2ccc3ncnc-3c2)cc1)C(C1CCCCC1)C1CCCC1` (stereo not shown) [2-Cyclohexyl-2-Cyclopentyl-1-[4-(5H Imidazol[4,5-c]Pyridin-5-yl-Methyl)Phenyl]Ethanone] was run?
Answer: 1.46 nM

Question: With `O=C(CC1CCCC1)c1ccc(Cn2ccc3ncnc-3c2)cc1` [2-Cyclopentyl-1-[4-(5H-Imidazo[4,5-c]Pyridin-5-yl-Methyl)Phenyl]Ethanone] as the molecule, how does the IC50 read?
Answer: 8.41 nM

Same assay, conditions: read-out: inhibition of 3H-PAF binding

Question: `Cc1nnc2n1-c1ccc(Cl)cc1C(c1ccccc1Cl)=NC2` [triazolam, reference compound] was tested. Which inhibition at 50 µM did it give?
Answer: ~50%

Each molecule was assayed on Rabbit Platelet (assay: PAF-induced platelet secretion ([3H]serotonin)). Details: Oryctolagus cuniculus, washed [3H]serotonin-labeled rabbit platelets, 60 sec preincubation, PAF 0.2 nM to 0.2 μM, secretion at 60 sec.
Format: cell-based
Method: (§1) PAF-induced platelet aggregation and secretion: Washed, [^3 H]serotonin-labeled rabbit platelets were prepared as previously described in COX, C. P , J. LINDEN and S. I. SAID: VIP elevates platelet cyclic AMP (cAMP) levels and inhibits in vitro platelet activation induced by platelet activating factor (PAF). Peptides 5:25-28, 1984, and maintained in an atmosphere of 5% CO2 at 37° C. until used in the bioassay. Aliquots of platelets (2.5×10^8 /ml) were incubated with either an antagonist of PAF or the appropriate vehicle for 60 sec prior to the addition of PAF (0.2 nM to 0.2 μM). Aggregation was continuously monitored on a strip-chart recorder and recorded as the height of the tracing at 60 sec after the addition of PAF. Secretion of [^3 H] serotonin was measured in a sample of the platelet suspension removed at 60 sec after the addition of PAF. The percent inhibition of aggregation and secretion was calculated by comparing antagonist-treated platelets with the appropriate vehicle-treated control platelets. Each combination of antagonist and PAF was repeated using different platelet preparations. IC50 values were determined by inspection of the dose-response curves.

Question: `O=C(CC1CCCCC1)c1ccc(Cn2ccc3ncnc-3c2)cc1` [2 Cyclohexyl-1-[4-(5H-Imidazo[4,5-c]Pyridin 5-yl-Methyl)Phenyl]Ethanone] was tested. Which IC50 did it give?
Answer: 131 nM

Question: `C=CCC(C(=O)c1ccc(Cn2ccc3ncnc-3c2)cc1)C1CCCCC1` (stereo not shown) [2-Cyclohexyl-1-[4-(5H-Imidazo[4,5-c]Pyridin-5-yl-Methyl)Phenyl]-4-Penten-1-One] was tested. Which IC50 did it give?
Answer: 105 nM

Question: Which IC50 does the source give for `O=C(c1ccc(Cn2ccc3ncnc-3c2)cc1)C(C1CCCCC1)C1CCCC1` (stereo not shown) [2-Cyclohexyl-2-Cyclopentyl-1-[4-(5H Imidazol[4,5-c]Pyridin-5-yl-Methyl)Phenyl]Ethanone] here?
Answer: 89 nM

Question: With `O=C(CC1CCCC1)c1ccc(Cn2ccc3ncnc-3c2)cc1` [2-Cyclopentyl-1-[4-(5H-Imidazo[4,5-c]Pyridin-5-yl-Methyl)Phenyl]Ethanone] as the molecule, how does the IC50 read?
Answer: 379 nM

These molecules were tested on Rabbit Platelet (assay: PAF-induced platelet aggregation). Details: Oryctolagus cuniculus, washed rabbit platelets, 60 sec preincubation, PAF 0.2 nM to 0.2 μM, aggregation at 60 sec.
Format: cell-based
Method: as §1

Question: For `O=C(CC1CCCCC1)c1ccc(Cn2ccc3ncnc-3c2)cc1` [2 Cyclohexyl-1-[4-(5H-Imidazo[4,5-c]Pyridin 5-yl-Methyl)Phenyl]Ethanone], which IC50 is on record?
Answer: 948 nM

Question: For `C=CCC(C(=O)c1ccc(Cn2ccc3ncnc-3c2)cc1)C1CCCCC1` (stereo not shown) [2-Cyclohexyl-1-[4-(5H-Imidazo[4,5-c]Pyridin-5-yl-Methyl)Phenyl]-4-Penten-1-One], which IC50 is on record?
Answer: 633 nM

Question: Which IC50 does the source give for `O=C(c1ccc(Cn2ccc3ncnc-3c2)cc1)C(C1CCCCC1)C1CCCC1` (stereo not shown) [2-Cyclohexyl-2-Cyclopentyl-1-[4-(5H Imidazol[4,5-c]Pyridin-5-yl-Methyl)Phenyl]Ethanone] here?
Answer: 279 nM

Question: With `O=C(CC1CCCC1)c1ccc(Cn2ccc3ncnc-3c2)cc1` [2-Cyclopentyl-1-[4-(5H-Imidazo[4,5-c]Pyridin-5-yl-Methyl)Phenyl]Ethanone] as the molecule, how does the IC50 read?
Answer: 2590 nM
